Results from US20110300115A1, “USE OF INDUCTOR AGENTS GSE24.2 FOR PRODUCING PHARMACEUTICAL COMPOSITIONS FOR TREATING ILLNESSES RELATING TO CELLULAR SENESCENCE” (priority 2007, published 2011).

Assays:
[1] = system: telomerase activity of 293T cell extracts; assay: in vitro test of telomerase activity inhibition using cisplatinum (TRAP assay, telomeric probe); format: biochemical; conditions: 293T cell extracts and telomere probe treated in vitro with cisplatinum; rising amounts of peptide
Experimental: This description for the first time describes use of the previously described peptide GSE 24.2 in an in vitro test of telomerase activity inhibition using cisplatinum with cell extracts from 293T cells and a telomere probe treated with cisplatinum. […] Additionally, the possible bond of the peptide GSE24-2 to the telomere sequence was analysed using gel shift tests, with an oligonucleotide that forms a loop (TEL1) which reconstructs the double chain sequence of the telomere with a small 3′ hanging sequence^41.
Production and purification of the peptide GSE24-2: The DH5α cells of E. coli were transformed with the vector pGATEV GSE24-2 and the lysates were prepared as described previously^33. The fusion protein was purified with glutathione-sepharose and the purity was analysed by means of gel electrophoresis. The GSE24-2 was obtained following digestion with the protease TEV following the manufacturer's instructions. Routinely, 90% was obtained of the digested protein according to what was obtained in SDS-PAGE electrophoresis. The protein was passed twice through a Hi-Trap Ni-NTA column in order to discard polyhistidine tails, undigested protein, TEV protease, and impurities.
Telomere repeat amplification protocol (TRAP). Telomerase activity was measured using the TRAPeze^37 telomerase detection kit (Intergen, Purchase, USA) following the manufacturer's instructions. […]

[2] = system: hTR promoter; assay: hTR-luc reporter, 293T cells; format: cell-based, human; conditions: luciferase 24 h after transfection
Experimental: Also, cisplatinum stimulates the promoter's activity in GSE24-2 cells more than in the control cells (FIG. 2B). […] No effect was observed of the expression of GSE24-2 on the promoter hTR^9 using cells expressing DKC or GSE24-2 (FIG. 2C).
Transfection and analysis of gene expression. The 293T cells were transfected transiently using the calcium phosphate method, as described previously^39. The total amount of DNA was maintained constant at 10 μg per million cells. The X-DC cells were transfected transiently by electroporation with 3 μg of pLNCX-GSE24-2 per million cells. The cells VA13 MEFs were transfected with […] of DNA/per million cells using lipofectamine plus (Invitrogen), following the manufacturer's instructions. The protein extracts were prepared and luciferase measured using a commercial kit (Promega). Each test was carried out in triplicate and the experiments were repeated three times. The efficiency of transfection was corrected by co-transfection of the plasmid p-CMV-Renilla.

“peptide GSE24-2: purified peptide GSE24-2 (SEQ ID NO2), fragment of dyskerin, produced in E. coli as fusion protein and cleaved with TEV protease (GFINLDKPSNPSSHEVVAWIRRILRVEKTGHSGTLDPKVTGCLIVCIERATRLVK; listed as Homo sapiens)” was tested, and the “telomerase activity of extracts under inhibition by cisplatinum” value [1] was “protect the telomerase activity of the extracts”.
For `O=C1c2ccccc2-c2n[nH]c3cccc1c23` [SP60125], the “activity of the hTR promoter” value [2] was “capable of activating the activity of this promoter”.
